Measurements published in ChEMBL document CHEMBL1201862, “PubChem BioAssay data set” (2004).
Activity calls are given as the source filed them.

Key:
[1] = molecular target: E3 ubiquitin-protein ligase Mdm2 (Homo sapiens, UniProt Q00987); assay: MDM2-luc reporter signal enhancers, multi-concentration potency testing, MDM2 ubiquitin-protein ligase inhibitor program, whole-cell format, luminescence detection, 384-well microplate (AID 1394); type: functional;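 note: MDM2 E3 inhibitors raise luminescence so EC50 is for signal enhancement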
[2] = Luminescence Cell-Based Dose Confirmation HTS to Identify Inhibitors of Platelet Dense Granule Release. [Related pubchem assays: 1663 (Primary HTS), 1678 (Summary of Project)]; type: functional
[3] = molecular target: Luciferin 4-monooxygenase (Photinus pyralis, UniProt P08659); assay: inhibition of purified Photinus pyralis luciferase – biochemical, luminescence, dose response (AID 1891)
[4] = Luminescent dose response cell-based high throughput screening assay for inhibitors of the Janus kinase 2 mutant JAK2V617F. [Related pubchem assays: 1446 (Primary screen.), 1521 (Confirmation assay.), 1486 (Counter screen.)]; type: functional
[5] = molecular target: T1, High affinity choline transporter 1 (Homo sapiens, UniProt Q9GZV3); assay: human choline transporter blockers, potency – cell-based, 5-point CRC, membrane potential dye, dose response (AID 504840); type: functional
T1 sequence (Q9GZV3 whole entry): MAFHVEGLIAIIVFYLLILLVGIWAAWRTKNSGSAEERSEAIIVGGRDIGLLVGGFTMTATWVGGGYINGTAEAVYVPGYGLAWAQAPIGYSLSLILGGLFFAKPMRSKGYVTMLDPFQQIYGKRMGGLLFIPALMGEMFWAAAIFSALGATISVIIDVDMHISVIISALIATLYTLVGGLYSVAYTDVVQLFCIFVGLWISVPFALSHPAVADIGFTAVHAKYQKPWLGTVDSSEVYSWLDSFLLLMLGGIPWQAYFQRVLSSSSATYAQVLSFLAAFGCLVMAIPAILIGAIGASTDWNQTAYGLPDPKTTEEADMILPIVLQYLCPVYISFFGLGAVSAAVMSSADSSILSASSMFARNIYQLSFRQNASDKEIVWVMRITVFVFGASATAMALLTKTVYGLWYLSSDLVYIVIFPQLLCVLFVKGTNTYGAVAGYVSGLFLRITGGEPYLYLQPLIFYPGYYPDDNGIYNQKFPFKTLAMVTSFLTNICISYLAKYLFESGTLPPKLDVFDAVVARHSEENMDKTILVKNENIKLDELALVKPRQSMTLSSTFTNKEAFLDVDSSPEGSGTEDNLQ

[6] = molecular target: Peroxisome proliferator-activated receptor gamma/Nuclear receptor corepressor 2 (Homo sapiens, UniProt P37231+Q9Y618); assay: Counterscreen for NR2E3 inverse agonists: TR-FRET-based biochemical high throughput dose response assay to identify inverse agonists of the interaction between peroxisome proliferator-activated receptor gamma (PPARg) and nuclear receptor co-repressor 2 (NCOR2).; type: functional
[7] = molecular target: T2, RNA-binding protein pos-1 (Caenorhabditis elegans, UniProt G5EF15); assay: disruptors of C. elegans POS-1 RNA interaction – biochemical, fluorescence polarization, dose response (AID 1964);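 note: purified POS-1 fused to maltose binding protein made in E. coli; potency of compounds blocking POS-1 binding to fluorescent RNA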
T2 sequence (G5EF15 whole entry): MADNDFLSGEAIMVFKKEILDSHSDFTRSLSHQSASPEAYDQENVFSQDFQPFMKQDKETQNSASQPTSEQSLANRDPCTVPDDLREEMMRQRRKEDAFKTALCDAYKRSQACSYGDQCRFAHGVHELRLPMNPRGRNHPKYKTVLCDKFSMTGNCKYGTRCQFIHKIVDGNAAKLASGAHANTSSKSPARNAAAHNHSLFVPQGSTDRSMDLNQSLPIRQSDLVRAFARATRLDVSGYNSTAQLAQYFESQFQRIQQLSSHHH

[8] = molecular target: Photoreceptor-specific nuclear receptor (Homo sapiens, UniProt Q9Y5X4); assay: ligands suppressing NR2E3 nuclear receptor activity – biochemical, TR-FRET, dose response (AID 463256); type: functional
[9] = molecular target: Dual specificity tyrosine-phosphorylation-regulated kinase 1A (Rattus norvegicus, UniProt Q63470); type: biochemical, Homo sapiens
[10] = molecular target: T3, Zinc finger protein mex-5 (Caenorhabditis elegans, UniProt Q9XUB2); assay: potency of MEX-5 RNA-binding blockers – biochemical, C. elegans, fluorescence polarization, dose response (AID 1960)
T3 sequence (Q9XUB2 whole entry): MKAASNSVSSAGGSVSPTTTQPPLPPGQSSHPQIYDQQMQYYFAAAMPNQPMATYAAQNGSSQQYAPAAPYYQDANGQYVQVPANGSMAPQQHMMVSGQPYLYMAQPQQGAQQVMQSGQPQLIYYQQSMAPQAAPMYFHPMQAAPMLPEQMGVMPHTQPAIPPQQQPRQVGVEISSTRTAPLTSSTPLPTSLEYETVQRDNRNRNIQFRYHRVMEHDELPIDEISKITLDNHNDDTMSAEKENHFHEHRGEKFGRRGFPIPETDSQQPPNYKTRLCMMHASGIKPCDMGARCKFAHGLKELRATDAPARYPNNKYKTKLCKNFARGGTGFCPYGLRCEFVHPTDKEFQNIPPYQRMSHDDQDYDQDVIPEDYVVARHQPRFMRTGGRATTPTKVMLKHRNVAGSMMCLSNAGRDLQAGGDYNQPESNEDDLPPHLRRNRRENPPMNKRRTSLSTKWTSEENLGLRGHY

[11] = molecular target: Diphosphomevalonate decarboxylase (Streptococcus pneumoniae serotype 2 (strain D39 / NCTC 7466), UniProt Q9FD53); assay: diphosphomevalonate decarboxylase inhibitor confirmation – biochemical, cuvette format, coupled NADH fluorescence (AID 1028); type: functional
[12] = molecular target: Bifunctional protein GlmU (Mycobacterium tuberculosis, UniProt P9WMN3); assay: Inhibitors of Mycobacterial Glucosamine-1-phosphate acetyl transferase (GlmU). Secondary screen.; set-up: species or system Mycobacterium tuberculosis H37Rv
[13] = molecular target: 72 kDa type IV collagenase (Homo sapiens, UniProt P08253); assay: Dose Response validation of uHTS RPN11 inhibitor hits using a MMP-2 Fluorescence assay.; type: functional
[14] = molecular target: DNA (cytosine-5)-methyltransferase 1 (Homo sapiens, UniProt P26358); assay: inhibition of DNA methylation by DNMT1 – biochemical, fluorescent molecular beacon, confirmation (AID 602386); type: functional
[15] = molecular target: T4, Rac GTPase-activating protein 1 (Homo sapiens, UniProt Q9H0H5); assay: blockers of MgcRacGAP-driven Rac1 GTP hydrolysis – biochemical, ADP Hunter fluorescence, primary and confirmatory, confirmation (AID 624330); type: functional
T4 sequence (Q9H0H5 whole entry): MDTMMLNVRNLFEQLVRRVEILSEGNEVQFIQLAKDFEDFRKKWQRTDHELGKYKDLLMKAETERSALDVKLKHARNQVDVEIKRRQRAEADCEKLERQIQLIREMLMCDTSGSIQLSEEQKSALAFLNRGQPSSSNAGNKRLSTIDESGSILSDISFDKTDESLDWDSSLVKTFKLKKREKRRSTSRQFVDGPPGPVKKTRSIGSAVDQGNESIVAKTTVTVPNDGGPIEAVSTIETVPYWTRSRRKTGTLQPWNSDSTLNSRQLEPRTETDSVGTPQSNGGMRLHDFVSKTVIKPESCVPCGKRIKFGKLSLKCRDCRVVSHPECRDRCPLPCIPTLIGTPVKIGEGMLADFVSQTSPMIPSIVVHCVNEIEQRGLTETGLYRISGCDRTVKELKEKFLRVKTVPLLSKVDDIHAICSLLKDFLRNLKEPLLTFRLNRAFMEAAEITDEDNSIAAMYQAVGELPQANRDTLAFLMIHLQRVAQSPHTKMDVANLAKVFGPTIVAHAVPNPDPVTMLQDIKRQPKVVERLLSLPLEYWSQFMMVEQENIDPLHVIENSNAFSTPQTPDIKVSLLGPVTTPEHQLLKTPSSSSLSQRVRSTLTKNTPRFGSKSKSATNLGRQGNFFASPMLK

[16] = molecular target: 26S proteasome non-ATPase regulatory subunit 14 (Homo sapiens, UniProt O00487); assay: inhibition of proteasome subunit RPN11 – biochemical, fluorescence polarization, uHTS hits, confirmation (AID 602368); type: functional
[17] = molecular target: Induced myeloid leukemia cell differentiation protein Mcl-1 (Homo sapiens, UniProt Q07820); type: functional
[18] = molecular target: T5, Histone-lysine N-methyltransferase NSD2 (Homo sapiens, UniProt O96028); type: biochemical
T5 sequence (O96028 whole entry): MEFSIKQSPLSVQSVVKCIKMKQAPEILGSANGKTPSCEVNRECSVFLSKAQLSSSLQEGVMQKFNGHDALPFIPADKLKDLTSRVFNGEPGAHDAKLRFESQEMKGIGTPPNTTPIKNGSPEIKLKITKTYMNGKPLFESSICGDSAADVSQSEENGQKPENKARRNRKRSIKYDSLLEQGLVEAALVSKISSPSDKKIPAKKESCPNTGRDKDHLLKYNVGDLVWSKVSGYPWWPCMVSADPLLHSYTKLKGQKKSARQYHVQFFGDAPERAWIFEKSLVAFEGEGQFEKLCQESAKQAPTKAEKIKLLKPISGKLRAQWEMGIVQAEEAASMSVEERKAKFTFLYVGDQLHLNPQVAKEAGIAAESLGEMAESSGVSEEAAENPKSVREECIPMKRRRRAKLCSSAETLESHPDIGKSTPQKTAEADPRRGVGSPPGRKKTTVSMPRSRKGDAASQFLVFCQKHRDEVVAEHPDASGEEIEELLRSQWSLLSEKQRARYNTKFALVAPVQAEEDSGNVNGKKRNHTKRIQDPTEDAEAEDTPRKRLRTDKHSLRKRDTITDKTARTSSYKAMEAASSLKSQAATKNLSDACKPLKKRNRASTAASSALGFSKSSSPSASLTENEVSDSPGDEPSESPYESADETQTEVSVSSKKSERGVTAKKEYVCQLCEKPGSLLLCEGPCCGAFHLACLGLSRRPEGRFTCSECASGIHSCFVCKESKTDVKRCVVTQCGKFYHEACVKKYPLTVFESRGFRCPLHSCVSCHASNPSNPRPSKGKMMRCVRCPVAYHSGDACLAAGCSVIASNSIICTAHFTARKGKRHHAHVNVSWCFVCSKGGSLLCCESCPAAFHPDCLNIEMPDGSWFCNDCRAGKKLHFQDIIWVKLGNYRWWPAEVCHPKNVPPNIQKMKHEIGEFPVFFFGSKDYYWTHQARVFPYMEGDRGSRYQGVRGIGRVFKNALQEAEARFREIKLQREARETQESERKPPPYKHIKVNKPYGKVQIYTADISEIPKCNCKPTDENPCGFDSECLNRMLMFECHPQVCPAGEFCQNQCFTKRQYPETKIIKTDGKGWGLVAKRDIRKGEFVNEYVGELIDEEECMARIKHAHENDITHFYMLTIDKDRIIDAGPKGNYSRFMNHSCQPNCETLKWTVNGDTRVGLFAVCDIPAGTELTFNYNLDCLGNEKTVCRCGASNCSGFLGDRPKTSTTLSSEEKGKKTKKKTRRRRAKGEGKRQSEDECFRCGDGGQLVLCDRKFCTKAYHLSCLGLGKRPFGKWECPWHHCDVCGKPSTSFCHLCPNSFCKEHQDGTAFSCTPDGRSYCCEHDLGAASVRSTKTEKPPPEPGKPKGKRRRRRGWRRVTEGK

Prothrombin = Prothrombin (Bos taurus, UniProt P00735); assay: thrombin protease inhibitors – biochemical, fluorescence polarization, uHTS hits, dose response (AID 602369); type: functional
[19] = M. tuberculosis growth inhibition, HTS (AID 449762); type: functional
Vero = assay: mammalian cell viability reduction – secondary assay, cytotoxicity control for West Nile virus antiviral project, dose response (AID 1650); type: functional; details: Chlorocebus sabaeus
[20] = molecular target: Sphingosine 1-phosphate receptor 2 (Homo sapiens, UniProt O95136); assay: Dose Response Cell Based Assay for Agonists of the S1P2 Receptor. [Related pubchem assays: 729, 736, 843 ]; type: functional
Bcl-2-related protein A1 [21] = molecular target: T6, Bcl-2-related protein A1 (Mus musculus, UniProt Q07440); assay: Bfl-1 binding inhibitors, SAR follow-up, biochemical, fluorescence polarization (AID 1070)
T6 sequence (Q07440 whole entry): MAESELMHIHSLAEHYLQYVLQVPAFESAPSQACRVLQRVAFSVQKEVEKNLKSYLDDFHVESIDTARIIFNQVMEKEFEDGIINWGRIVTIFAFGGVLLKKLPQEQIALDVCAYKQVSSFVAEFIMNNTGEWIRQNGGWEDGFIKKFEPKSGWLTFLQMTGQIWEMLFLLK

Bcl-2-related protein A1 [22] = molecular target: T6, Bcl-2-related protein A1; assay: small-molecule antagonists of Bfl-1/BH3 interaction – biochemical, TR-FRET, mouse Bfl-1, confirmation (AID 621);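 note: TR-FRET binding of GST-Bfl-1 to FITC-labelled Bid peptide via terbium antibody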
NADPH oxidase 1 = NADPH oxidase 1 (Homo sapiens, UniProt Q9Y5S8); assay: Late-stage luminescence-based cell-based dose response assay to identify inhibitors of NADPH oxidase 1 (NOX1): Purchased analogs 2.; type: functional
NADPH oxidase 1, sequence (Q9Y5S8 whole entry): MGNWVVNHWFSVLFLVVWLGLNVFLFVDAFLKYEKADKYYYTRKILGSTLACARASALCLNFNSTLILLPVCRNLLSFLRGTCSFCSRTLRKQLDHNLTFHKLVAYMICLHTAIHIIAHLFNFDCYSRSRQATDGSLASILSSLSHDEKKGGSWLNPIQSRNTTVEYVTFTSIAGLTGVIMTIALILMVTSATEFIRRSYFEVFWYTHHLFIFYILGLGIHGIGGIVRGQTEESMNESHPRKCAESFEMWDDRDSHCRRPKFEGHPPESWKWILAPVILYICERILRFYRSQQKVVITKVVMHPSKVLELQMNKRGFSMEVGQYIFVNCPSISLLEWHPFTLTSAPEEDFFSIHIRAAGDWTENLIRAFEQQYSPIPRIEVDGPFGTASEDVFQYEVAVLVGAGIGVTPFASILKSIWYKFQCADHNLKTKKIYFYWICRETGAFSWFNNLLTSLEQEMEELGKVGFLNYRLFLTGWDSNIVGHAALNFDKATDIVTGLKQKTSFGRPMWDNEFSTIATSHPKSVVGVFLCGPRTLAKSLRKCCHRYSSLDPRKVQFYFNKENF

Bifunctional protein GlmU, sequence (P9WMN3 whole entry): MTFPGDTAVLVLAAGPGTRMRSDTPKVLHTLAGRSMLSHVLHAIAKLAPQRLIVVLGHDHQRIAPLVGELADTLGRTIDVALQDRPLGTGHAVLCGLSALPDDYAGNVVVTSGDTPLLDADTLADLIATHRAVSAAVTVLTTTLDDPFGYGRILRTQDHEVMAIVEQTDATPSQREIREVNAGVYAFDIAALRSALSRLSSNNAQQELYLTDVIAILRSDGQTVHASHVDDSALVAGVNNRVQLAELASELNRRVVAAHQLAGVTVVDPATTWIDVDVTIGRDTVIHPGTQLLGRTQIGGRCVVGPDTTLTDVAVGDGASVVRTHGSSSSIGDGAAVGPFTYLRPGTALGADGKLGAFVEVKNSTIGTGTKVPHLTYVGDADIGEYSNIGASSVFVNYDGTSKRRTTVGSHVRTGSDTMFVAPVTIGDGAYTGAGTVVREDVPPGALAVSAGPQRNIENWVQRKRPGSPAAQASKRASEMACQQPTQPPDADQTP
Diphosphomevalonate decarboxylase, sequence (Q9FD53 whole entry): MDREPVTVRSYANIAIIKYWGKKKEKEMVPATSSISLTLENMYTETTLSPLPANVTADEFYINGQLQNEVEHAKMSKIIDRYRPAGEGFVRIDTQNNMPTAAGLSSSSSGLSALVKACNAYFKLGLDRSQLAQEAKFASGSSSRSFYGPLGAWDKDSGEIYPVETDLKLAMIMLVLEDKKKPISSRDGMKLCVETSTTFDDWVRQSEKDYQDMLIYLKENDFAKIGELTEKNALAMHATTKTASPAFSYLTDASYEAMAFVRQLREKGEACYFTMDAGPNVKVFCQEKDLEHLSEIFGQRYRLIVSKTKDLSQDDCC
72 kDa type IV collagenase, sequence (P08253 whole entry): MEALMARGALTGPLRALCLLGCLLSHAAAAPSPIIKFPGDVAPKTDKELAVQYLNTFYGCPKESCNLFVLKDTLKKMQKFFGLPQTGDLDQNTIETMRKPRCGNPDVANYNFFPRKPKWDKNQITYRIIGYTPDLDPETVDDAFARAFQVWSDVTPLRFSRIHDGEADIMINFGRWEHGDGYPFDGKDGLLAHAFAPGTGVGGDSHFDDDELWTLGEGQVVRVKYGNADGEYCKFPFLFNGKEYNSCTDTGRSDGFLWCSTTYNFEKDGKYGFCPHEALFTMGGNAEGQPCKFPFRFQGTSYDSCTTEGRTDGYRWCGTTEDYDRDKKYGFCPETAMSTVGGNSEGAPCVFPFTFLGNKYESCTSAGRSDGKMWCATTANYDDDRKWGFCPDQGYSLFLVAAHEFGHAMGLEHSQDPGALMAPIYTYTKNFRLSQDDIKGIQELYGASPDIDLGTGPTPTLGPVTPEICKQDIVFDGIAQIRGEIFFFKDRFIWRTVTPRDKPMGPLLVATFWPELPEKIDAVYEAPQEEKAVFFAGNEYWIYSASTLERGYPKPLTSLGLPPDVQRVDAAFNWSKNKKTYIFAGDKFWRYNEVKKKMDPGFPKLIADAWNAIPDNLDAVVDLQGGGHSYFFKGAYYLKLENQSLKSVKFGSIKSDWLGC
DNA (cytosine-5)-methyltransferase 1, sequence (P26358 whole entry): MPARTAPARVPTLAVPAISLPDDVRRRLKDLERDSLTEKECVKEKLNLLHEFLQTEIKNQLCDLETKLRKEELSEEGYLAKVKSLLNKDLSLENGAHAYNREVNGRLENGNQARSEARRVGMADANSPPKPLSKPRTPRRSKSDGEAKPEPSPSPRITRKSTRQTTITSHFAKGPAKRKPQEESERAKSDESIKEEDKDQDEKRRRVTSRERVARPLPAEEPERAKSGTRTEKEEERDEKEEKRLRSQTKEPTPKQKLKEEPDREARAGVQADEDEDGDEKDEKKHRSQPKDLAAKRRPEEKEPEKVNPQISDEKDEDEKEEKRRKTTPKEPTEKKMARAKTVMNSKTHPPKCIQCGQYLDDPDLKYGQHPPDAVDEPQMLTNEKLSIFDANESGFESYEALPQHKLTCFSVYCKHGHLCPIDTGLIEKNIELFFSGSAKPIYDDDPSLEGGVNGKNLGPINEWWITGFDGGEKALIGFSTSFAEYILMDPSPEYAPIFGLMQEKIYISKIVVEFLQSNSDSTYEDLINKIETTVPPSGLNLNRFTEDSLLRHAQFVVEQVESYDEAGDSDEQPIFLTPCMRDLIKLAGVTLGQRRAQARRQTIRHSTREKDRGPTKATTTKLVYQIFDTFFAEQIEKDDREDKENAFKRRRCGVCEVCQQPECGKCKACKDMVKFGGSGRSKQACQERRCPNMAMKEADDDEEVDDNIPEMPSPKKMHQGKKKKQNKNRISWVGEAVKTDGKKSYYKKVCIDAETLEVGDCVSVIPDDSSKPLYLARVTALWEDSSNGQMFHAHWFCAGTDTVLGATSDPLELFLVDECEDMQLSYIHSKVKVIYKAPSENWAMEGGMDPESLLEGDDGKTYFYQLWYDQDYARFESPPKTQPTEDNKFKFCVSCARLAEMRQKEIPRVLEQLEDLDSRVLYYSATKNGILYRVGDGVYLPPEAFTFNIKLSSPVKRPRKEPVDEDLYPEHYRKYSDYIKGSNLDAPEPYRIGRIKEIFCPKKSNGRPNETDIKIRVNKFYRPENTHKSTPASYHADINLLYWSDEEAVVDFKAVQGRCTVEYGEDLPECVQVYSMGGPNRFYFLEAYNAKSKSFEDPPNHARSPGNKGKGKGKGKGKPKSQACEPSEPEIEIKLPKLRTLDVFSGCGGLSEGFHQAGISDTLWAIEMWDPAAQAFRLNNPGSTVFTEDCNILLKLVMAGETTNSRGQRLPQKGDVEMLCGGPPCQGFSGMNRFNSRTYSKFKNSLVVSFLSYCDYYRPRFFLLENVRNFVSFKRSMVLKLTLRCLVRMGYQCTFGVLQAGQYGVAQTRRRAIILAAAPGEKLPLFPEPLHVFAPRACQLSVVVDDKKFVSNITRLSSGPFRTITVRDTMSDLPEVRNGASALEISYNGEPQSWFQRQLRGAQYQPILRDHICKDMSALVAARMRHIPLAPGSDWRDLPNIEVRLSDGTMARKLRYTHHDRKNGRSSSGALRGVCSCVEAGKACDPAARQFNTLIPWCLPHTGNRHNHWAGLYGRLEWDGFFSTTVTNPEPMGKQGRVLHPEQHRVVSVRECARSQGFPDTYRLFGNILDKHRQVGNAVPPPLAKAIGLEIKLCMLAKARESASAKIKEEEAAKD
26S proteasome non-ATPase regulatory subunit 14, sequence (O00487 whole entry): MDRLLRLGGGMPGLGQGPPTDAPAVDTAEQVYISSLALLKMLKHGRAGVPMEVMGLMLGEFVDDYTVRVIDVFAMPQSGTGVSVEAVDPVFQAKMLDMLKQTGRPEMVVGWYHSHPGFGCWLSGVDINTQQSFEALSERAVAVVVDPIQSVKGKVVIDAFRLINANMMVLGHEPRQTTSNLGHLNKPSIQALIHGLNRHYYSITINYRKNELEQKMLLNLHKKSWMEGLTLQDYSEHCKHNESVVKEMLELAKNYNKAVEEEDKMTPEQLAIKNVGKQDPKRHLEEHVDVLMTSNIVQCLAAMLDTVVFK
Photoreceptor-specific nuclear receptor, sequence (Q9Y5X4 whole entry): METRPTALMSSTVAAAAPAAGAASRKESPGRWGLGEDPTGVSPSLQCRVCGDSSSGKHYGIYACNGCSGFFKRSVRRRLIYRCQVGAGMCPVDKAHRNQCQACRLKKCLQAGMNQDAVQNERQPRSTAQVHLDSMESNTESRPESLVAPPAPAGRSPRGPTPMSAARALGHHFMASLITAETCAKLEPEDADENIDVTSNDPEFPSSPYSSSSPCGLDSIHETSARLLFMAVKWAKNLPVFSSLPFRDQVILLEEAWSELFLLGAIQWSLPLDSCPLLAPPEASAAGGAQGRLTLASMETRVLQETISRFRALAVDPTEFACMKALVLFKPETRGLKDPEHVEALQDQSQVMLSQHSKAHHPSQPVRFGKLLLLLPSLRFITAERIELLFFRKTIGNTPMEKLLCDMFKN
E3 ubiquitin-protein ligase Mdm2, sequence (Q00987 whole entry): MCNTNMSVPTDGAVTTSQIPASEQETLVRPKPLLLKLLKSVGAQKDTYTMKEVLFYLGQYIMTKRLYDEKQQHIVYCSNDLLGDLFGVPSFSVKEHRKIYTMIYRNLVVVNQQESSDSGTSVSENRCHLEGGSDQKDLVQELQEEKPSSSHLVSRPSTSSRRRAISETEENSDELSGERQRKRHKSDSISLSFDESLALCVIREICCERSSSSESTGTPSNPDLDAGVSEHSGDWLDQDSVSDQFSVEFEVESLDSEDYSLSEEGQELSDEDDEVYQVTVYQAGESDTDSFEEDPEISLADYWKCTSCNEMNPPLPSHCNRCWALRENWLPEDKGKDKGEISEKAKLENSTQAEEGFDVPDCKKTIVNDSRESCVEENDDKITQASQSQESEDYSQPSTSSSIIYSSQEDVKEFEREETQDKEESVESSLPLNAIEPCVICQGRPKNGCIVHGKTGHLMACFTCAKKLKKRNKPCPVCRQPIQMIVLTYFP

Cc1cc2cc(C)c(SCC(=O)NCc3ccco3)nc2cc1C
EC50 [1]: 489 µM (not active)

COc1cc2c(cc1OC)-c1cc(N3CCCc4ccccc43)nc(=O)n1CC2
EC50 [2]: 3.35 µM (active)
EC50 [3]: > 112 µM (not active)
IC50 [4]: > 40 µM (not active)
IC50 [5]: 13.2 µM (active)

N=C1NC(=O)/C(=C/c2ccc(-c3ccc(S(N)(=O)=O)cc3)o2)S1
IC50 [6]: > 39.8 µM (not active)
EC50 [7]: 31.9 µM (active)
IC50 [8]: 14.2 µM (not active)
AC50 [9]: 1.97 µM (active)
EC50 [10]: 15 µM (active)

CCCN(CCC)C(=O)c1ccc(-n2sc3ccccc3c2=O)cc1
IC50 [11]: 7.64 µM (active)

Cc1ccc(N2C(=O)NC(=O)/C(=C/c3ccoc3)C2=O)cc1
IC50 [12]: 66.5 µM (active)
IC50 [13]: 3.45 µM (active)
IC50 [14]: 4 µM (active)
IC50 [15]: 55.7 µM (active)
IC50 [16]: 6.76 µM (active)
IC50 [17]: 4.84 µM (active)
AC50 [18]: 7.88 µM (active)
IC50 (Prothrombin): 84.7 µM (active)

C/C(=C\C(=O)c1ccccc1)Nc1ccc(Cl)c(Br)c1
IC50 [19]: > 100 µM (active)

CC(C(=O)N(C)C1CCS(=O)(=O)C1)N1C(=O)/C(=C/c2cccs2)SC1=S (stereo not given)
CC50 (Vero): 32.1 µM (active)

O=C1SC(c2ccccc2)=N/C1=C/c1ccco1
EC50 [20]: > 50 µM (not active)

Clc1ccc(-n2nnc(-c3cnc4ccccc4c3)n2)cc1Cl
IC50 (Bcl-2-related protein A1 [21]): > 100 µM (not active)
IC50 (Bcl-2-related protein A1 [22]): > 100 µM (not active)

O=C1Nc2cc(F)ccc2/C1=N/Nc1c(F)c(F)nc(F)c1F
IC50 (NADPH oxidase 1): > 17 µM (not active)
